Measurements reported in patent US20230151025A1, “SUBSTITUTED THIAZOLOPYRIDINES, SALTS THEREOF AND THEIR USE AS HERBICIDALLY ACTIVE SUBSTANCES” (Bayer Aktiengesellschaft, priority 2020, published 2023).

Legend:
Assay type in all cases: in vivo
Viola tricolor (VIOTR) [1] = assay: Herbicidal post-emergence action (D), 320 g/ha; conditions: ca. 3 weeks
Procedure, shortened: (§1)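 Weeds sown in sandy loam and greenhouse-grown for 2 to 3 weeks, then sprayed at single-leaf stage with WP or EC formulations in water plus 0.5% additive at 600 l water/ha. After ca. 3 weeks, injury scored visually versus untreated controls: 0% = as control, 100% = plants dead.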

Setaria viridis (SETVI) [2] = assay: Herbicidal post-emergence action (D), 320 g/ha; conditions: ca. 3 weeks
Procedure, shortened: as §1

[3] = system: Amaranthus retroflexus (AMARE); assay: Herbicidal post-emergence action (D), 320 g/ha; conditions: ca. 3 weeks
Procedure, shortened: as §1

Lolium rigidum (LOLRI) [4] = assay: Herbicidal post-emergence action (D), 320 g/ha; conditions: ca. 3 weeks
Procedure, shortened: as §1

Stellaria media (STEME) [5] = assay: Herbicidal post-emergence action (D), 320 g/ha; conditions: ca. 3 weeks
Procedure, shortened: as §1

Veronica persica (VERPE) [6] = assay: Herbicidal post-emergence action (D), 320 g/ha; conditions: ca. 3 weeks
Procedure, shortened: as §1

[7] = system: Matricaria inodora (MATIN); assay: Herbicidal post-emergence action (D), 320 g/ha; conditions: single-leaf stage, assessed visually after ca. 3 weeks vs untreated controls, 100% = plants have died off, 0% = as control plants
Procedure, shortened: as §1

[8] = system: Polygonum convolvulus (POLCO); assay: Herbicidal post-emergence action (D), 320 g/ha; conditions: ca. 3 weeks
Procedure, shortened: as §1

[9] = system: Alopecurus myosuroides (ALOMY); assay: Herbicidal post-emergence action (D), 320 g/ha; conditions: ca. 3 weeks
Procedure, shortened: as §1

[10] = system: Abutilon theophrasti (ABUTH); assay: Herbicidal post-emergence action (D), 320 g/ha; conditions: ca. 3 weeks
Procedure, shortened: as §1

[11] = system: Echinochloa crus-galli (ECHCG); assay: Herbicidal post-emergence action (D), 320 g/ha; conditions: ca. 3 weeks
Procedure, shortened: as §1

Avena fatua [12] = assay: Herbicidal post-emergence action (D), 320 g/ha; conditions: ca. 3 weeks
Source text: (§2) Seeds of mono- and dicotyledonous weed plants and crop plants were sown, in plastic or organic planting pots, in sandy loam, covered with soil and grown in a greenhouse under controlled growth conditions. 2 to 3 weeks after sowing, the test plants were sprayed in the single-leaf stage. The compounds according to the invention, formulated in form of wettable powders (WP) or as emulsifiable concentrates (EC), were sprayed onto the green plant parts as aqueous suspension or emulsion, with the addition of 0.5% of an additive, at an application rate of 600 l of water/ha (converted). The test plants were placed in the greenhouse for ca. 3 weeks under optimum growth conditions, and then the effect of the preparations was assessed visually in comparison with untreated controls (herbicidal effect in percent (%): 100% effect=plants have died off, 0% effect=as control plants).
(§3) Tables D1 to D13 below show the effects of selected compounds of the general formula (I) according to table 1 on various harmful plants and an application rate corresponding to 320 g/ha obtained by the experimental procedure mentioned above.

[13] = system: Digitaria sanguinalis (DIGSA); assay: Herbicidal post-emergence action (D), 320 g/ha; conditions: ca. 3 weeks
Source text: as §2, §3

Viola tricolor (VIOTR) [14] = assay: Herbicidal pre-emergence action (C), 320 g/ha; conditions: ca. 3 weeks
Procedure, shortened: (§4)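 Pre-emergence greenhouse test: visual damage rating at about 3 weeks relative to untreated plants, 100% meaning death and 0% no effect. Compounds, as wettable powders or emulsifiable concentrates with 0.5% additive, were applied at 320 g/ha (600 l water/ha) onto soil covering seeds sown in sandy loam.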

Setaria viridis (SETVI) [15] = assay: Herbicidal pre-emergence action (C), 320 g/ha; conditions: ca. 3 weeks
Procedure, shortened: as §4

[16] = system: Amaranthus retroflexus (AMARE); assay: Herbicidal pre-emergence action (C), 320 g/ha; conditions: ca. 3 weeks
Procedure, shortened: as §4

Lolium rigidum (LOLRI) [17] = assay: Herbicidal pre-emergence action (C), 320 g/ha; conditions: ca. 3 weeks
Procedure, shortened: as §4

Stellaria media (STEME) [18] = assay: Herbicidal pre-emergence action (C), 320 g/ha; conditions: visual grading after ca. 3 weeks vs untreated controls, 100% = plants have died off, 0% = as control plants
Procedure, shortened: as §4

Veronica persica (VERPE) [19] = assay: Herbicidal pre-emergence action (C), 320 g/ha; conditions: ca. 3 weeks
Procedure, shortened: as §4

[20] = system: Matricaria inodora (MATIN); assay: Herbicidal pre-emergence action (C), 320 g/ha; conditions: ca. 3 weeks
Procedure, shortened: as §4

[21] = system: Polygonum convolvulus (POLCO); assay: Herbicidal pre-emergence action (C), 320 g/ha; conditions: ca. 3 weeks
Procedure, shortened: as §4

[22] = system: Alopecurus myosuroides (ALOMY); assay: Herbicidal pre-emergence action (C), 320 g/ha; conditions: ca. 3 weeks
Procedure, shortened: as §4

[23] = system: Abutilon theophrasti (ABUTH); assay: Herbicidal pre-emergence action (C), 320 g/ha; conditions: ca. 3 weeks
Procedure, shortened: as §4

[24] = system: Echinochloa crus-galli (ECHCG); assay: Herbicidal pre-emergence action (C), 320 g/ha; conditions: ca. 3 weeks
Procedure, shortened: as §4

Avena fatua [25] = assay: Herbicidal pre-emergence action (C), 320 g/ha; conditions: ca. 3 weeks
Procedure, shortened: (§5)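 Weed and crop seeds sown in sandy loam; WP or EC formulations applied pre-emergence to the soil surface as aqueous suspension/emulsion with 0.5% additive at 600 l water/ha. Greenhouse-grown under optimum conditions; damage visually scored after ca. 3 weeks versus untreated controls (0% = as control, 100% = plants dead).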

[26] = system: Digitaria sanguinalis (DIGSA); assay: Herbicidal pre-emergence action (C), 320 g/ha; conditions: ca. 3 weeks
Procedure, shortened: as §5

Structure (SMILES): Cc1cc2scnc2nc1-c1ccccc1F [Example I-002]
- herbicidal effect VIOTR (Viola tricolor (VIOTR) [1]): 80%
- herbicidal effect SETVI (Setaria viridis (SETVI) [2]): 90%
- herbicidal effect AMARE [3]: 90%
- herbicidal effect LOLRI (Lolium rigidum (LOLRI) [4]): 80%
- herbicidal effect STEME (Stellaria media (STEME) [5]): 90%
- herbicidal effect VERPE (Veronica persica (VERPE) [6]): 80%
- MATIN, herbicidal effect in percent (%) [7]: 80%
- herbicidal effect POLCO [8]: 90%
- herbicidal effect ALOMY [9]: 90%
- herbicidal effect ABUTH [10]: 80%
- herbicidal effect ECHCG [11]: 100%
- herbicidal effect AVEFA (Avena fatua [12]): 80%
- herbicidal effect DIGSA [13]: 90%
- herbicidal effect VIOTR (Viola tricolor (VIOTR) [14]): 80%
- herbicidal effect SETVI (Setaria viridis (SETVI) [15]): 100%
- herbicidal effect AMARE [16]: 90%
- herbicidal effect LOLRI (Lolium rigidum (LOLRI) [17]): 100%
- STEME, herbicidal effect in percent (%) (Stellaria media (STEME) [18]): 90%
- herbicidal effect VERPE (Veronica persica (VERPE) [19]): 90%
- herbicidal effect MATIN [20]: 90%
- herbicidal effect POLCO [21]: 90%
- herbicidal effect ALOMY [22]: 100%
- herbicidal effect ABUTH [23]: 90%
- herbicidal effect ECHCG [24]: 100%
- herbicidal effect AVEFA (Avena fatua [25]): 100%
- herbicidal effect DIGSA [26]: 100%
